“And” between values parts separate entries of the source, which are not always exact repeats. Equal entries are not always repeated.
What was measured:
human GPR61 R140A = biological target: T1, human GPR61 R140A (Homo sapiens, UniProt Q9BZJ8, R140A); assay: Functional cAMP assay (HTRF), transiently transfected CHO-K1 cells, GPR61 R140A mutant; format: cell-based
T1 construct: expressed in transfected cells; host or cells: CHO-K1, transient (Fugene6)
From the text: The human GPR61 (reference sequence NM_031936.4) cDNA was synthesized and subcloned into pcDNA5/FRT/TO (Thermo Fisher, Pittsburgh, PA). The pcDNA5/FRT/TO/ human GPR61 plasmid was then transfected into the Flp-In™-CHO Cell Line (Thermo Fisher, Pittsburgh, PA) and a doxycycline-inducible clonal cell line was selected (CHO TREx hGPR61 WT). Sequences encoding untagged and HiBit/hemagglutinin (HA)-tagged versions of the wild-type human GPR61 were synthesized and cloned into pcDNA3.1. The HiBit ([…]) and HA ([…]) tags were sequentially included after the N-terminal initiator methionine. Four single amino acid substitutions (N137A, R140A, V288A, N345A) were then introduced in the untagged and tagged human GPR61 constructs using site-specific mutagenesis. The nucleotide sequences of all receptor constructs were confirmed by automated DNA sequencing.
Parental CHO-K1 cells were maintained at 37 °C in a humidified environment (5% CO2) and grown in Dulbecco’s Modified Eagle Medium (DMEM) F-12 media (Gibco, 11320033) supplemented with 10% FBS, 1% Glutamax (Gibco, 35050061) and 100units/ml penicillin and streptomycin (Gibco, 15140122. Cells were dissociated using a cell dissociation solution (Gibco, 13151-014), counted, and resuspended in complete culture media without antibiotics. Cells were then transiently transfected using Fugene6 (Promega) in a 384-well plate format (Corning, 3570). For each well, 7500 cells were transfected with 5 ng of receptor plasmid, 20 ng of carrier DNA (Promega, PAE4881) and 0.075 μl Fugene6 in a final volume of 25 μl. […] Surface and total receptor expression was measured separately by adding 25 μl per well of the extracellular (Promega, PRN2421) and lytic (Promega, PRN3040) assay solutions, respectively. Plates were incubated for 10 min at room temperature on a shaker and luciferase activity was measured using an EnVision plate reader (Perkin Elmer, Chicago, IL). […]
A homogeneous Time-Resolved Fluorescence (HTRF) assay (Perkin Elmer, Dynamic2 kit #) was used to assess receptor basal and inverse agonist activity at human GPR61, GPR62, and GPR101. […]

Human PDE8B = Human PDE8B (Homo sapiens, UniProt O95263); assay: Phosphodiesterase Assay (SPA); format: biochemical
Sequence of Human PDE8B (O95263 whole entry): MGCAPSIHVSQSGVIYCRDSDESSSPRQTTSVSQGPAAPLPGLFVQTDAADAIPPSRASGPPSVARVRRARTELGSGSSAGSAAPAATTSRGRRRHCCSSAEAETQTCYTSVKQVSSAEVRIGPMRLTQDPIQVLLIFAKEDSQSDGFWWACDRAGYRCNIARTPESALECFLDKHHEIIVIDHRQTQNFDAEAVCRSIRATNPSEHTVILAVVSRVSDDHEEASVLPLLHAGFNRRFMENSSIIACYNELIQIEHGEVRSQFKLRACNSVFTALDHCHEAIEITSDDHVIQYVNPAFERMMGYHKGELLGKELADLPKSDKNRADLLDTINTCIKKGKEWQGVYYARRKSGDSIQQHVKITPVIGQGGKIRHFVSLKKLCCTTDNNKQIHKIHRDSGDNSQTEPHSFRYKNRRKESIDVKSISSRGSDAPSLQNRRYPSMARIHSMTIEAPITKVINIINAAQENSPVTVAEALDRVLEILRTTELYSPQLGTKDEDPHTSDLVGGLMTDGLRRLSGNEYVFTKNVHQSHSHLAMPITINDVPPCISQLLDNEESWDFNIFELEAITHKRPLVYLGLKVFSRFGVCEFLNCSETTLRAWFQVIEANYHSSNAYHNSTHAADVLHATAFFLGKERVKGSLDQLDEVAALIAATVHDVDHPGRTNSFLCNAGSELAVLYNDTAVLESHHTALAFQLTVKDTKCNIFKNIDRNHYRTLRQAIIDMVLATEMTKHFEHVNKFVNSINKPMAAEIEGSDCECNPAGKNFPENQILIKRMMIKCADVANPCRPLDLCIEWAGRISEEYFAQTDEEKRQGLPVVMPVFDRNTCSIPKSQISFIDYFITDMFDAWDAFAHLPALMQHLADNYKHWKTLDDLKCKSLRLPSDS

T1 sequence (Q9BZJ8 whole entry R140A): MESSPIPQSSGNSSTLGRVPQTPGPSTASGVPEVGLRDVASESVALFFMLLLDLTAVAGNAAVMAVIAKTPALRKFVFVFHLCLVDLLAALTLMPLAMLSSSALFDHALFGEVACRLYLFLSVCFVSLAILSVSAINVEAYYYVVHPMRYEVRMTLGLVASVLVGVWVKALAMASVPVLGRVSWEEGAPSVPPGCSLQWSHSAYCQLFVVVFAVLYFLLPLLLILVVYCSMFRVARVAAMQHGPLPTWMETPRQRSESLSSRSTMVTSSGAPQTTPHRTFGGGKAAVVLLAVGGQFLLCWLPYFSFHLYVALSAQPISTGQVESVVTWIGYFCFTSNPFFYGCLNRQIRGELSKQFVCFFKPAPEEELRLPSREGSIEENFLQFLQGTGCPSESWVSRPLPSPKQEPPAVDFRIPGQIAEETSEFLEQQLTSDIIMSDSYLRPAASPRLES

## CCOc1cc(C)nc(N(CCOC)S(=O)(=O)c2ccc(NCc3c(F)cncc3F)nc2OC)n1 [Compound 1]
Human GPR61 R140A; Fig. 3e table, untagged, read-out: GPR61 cAMP IC50 (95% CI), R140A Untagged
  IC50: 7.88 µM
Human GPR61 R140A; HiBit R140A, concentration -8.5
  cAMP response (Figure 3e source data): 4.06 and 2.30 and 2.96 and 2.25 and 3.21
Human GPR61 R140A; R140A mutant vs wild-type
  sensitivity of the receptor to inverse agonism in the cAMP assay: less sensitive
Human PDE8B
  IC50: 9.07 µM
